Experimental data reported in publication PMC5773580, “A synthetic combinatorial approach to disabling deviant Hedgehog signaling” (Scientific Reports, 2018).
Values joined by “and” are separate entries in the source; they are usually repeats but may differ in a detail not shown here. Equal values may be shown once.

Key:
[1] = biological target: T1, HDAC5 (Homo sapiens, UniProt Q9UQL6); test: In vitro HDAC profiling (deacetylation assay), HDAC5; type: biochemical; conditions: for HDAC Activity (Fluorescent counts): Repeat1/Repeat 2
T1 construct: purchased BPS Bioscience #50051-11
T1 sequence (Q9UQL6 whole entry): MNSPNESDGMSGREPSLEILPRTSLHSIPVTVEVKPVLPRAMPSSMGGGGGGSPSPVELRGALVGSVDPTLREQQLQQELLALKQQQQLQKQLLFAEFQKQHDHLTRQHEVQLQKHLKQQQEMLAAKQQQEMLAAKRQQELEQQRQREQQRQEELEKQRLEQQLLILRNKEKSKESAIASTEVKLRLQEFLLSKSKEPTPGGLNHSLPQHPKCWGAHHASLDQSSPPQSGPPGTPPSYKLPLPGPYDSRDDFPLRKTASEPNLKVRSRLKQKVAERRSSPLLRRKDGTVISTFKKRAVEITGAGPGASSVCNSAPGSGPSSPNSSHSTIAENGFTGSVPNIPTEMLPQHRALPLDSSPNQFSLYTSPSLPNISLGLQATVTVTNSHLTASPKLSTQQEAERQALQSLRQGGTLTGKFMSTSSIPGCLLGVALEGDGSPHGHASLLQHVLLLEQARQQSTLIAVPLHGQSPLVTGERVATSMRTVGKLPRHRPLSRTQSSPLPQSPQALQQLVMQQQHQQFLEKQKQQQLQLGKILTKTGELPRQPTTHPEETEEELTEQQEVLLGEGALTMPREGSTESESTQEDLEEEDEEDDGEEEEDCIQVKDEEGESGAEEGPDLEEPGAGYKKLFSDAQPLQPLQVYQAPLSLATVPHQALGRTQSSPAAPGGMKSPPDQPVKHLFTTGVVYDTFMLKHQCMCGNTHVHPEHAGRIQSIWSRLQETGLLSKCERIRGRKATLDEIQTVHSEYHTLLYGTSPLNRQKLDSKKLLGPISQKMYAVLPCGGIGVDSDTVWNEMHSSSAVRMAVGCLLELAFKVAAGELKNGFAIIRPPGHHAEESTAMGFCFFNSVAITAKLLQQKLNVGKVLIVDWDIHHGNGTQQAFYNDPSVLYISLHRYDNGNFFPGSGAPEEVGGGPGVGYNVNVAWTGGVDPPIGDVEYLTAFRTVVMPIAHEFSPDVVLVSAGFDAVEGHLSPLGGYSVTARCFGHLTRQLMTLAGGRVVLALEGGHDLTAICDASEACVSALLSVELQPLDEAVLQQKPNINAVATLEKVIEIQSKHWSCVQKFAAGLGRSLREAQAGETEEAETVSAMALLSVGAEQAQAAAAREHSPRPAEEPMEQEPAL
Experimental: (§1) HDAC profiling was performed at BPS Bioscience (San Diego, CA). All of the compounds are dissolved in DMSO. A series of dilutions of the compounds were prepared with 10% DMSO in HDAC assay buffer (#50031) and 5 µl of the dilution was added to a 50 µl reaction so that the final concentration of DMSO is 1% in all of reactions. All of the enzymatic reactions were conducted in duplicate at 37 °C for 30 mins, except that the enzyme reactions for HDAC11 were at room temperature for 3 hrs. All of the reactions were performed in a 50 µl mixture containing HDAC assay buffer, 5 µg BSA, an HDAC substrate [HDAC Substrate 3 (BPS number 50037) or HDAC Class 2a Substrate 1 (BPS number 50040)], an HDAC enzyme (#50051-11) and a test compound. After enzymatic reactions, 50 μl of HDAC Developer (#50030) was added to each well and the plate was incubated at room temperature for an additional 20 mins. Fluorescence intensity was measured at an excitation of 360 nm and an emission of 460 nm using a Tecan Infinite M1000 microplate reader. HDAC activity assays were performed in duplicates at each concentration. The fluorescent intensity data were analyzed using the computer software, Graphpad Prism. In the absence of the compound, the fluorescent intensity (Ft) in each data set was defined as 100% activity. In the absence of HDAC, the fluorescent intensity (Fb) in each data set was defined as 0% activity. The percent activity in the presence of each compound was calculated according to the following equation: %activity = (F − Fb)/(Ft − Fb), where F = the fluorescent intensity in the presence of the compound. The values of % activity versus a series of compound concentrations were then plotted using non-linear regression analysis of Sigmoidal dose-response curve generated with the equation Y = B + (T − B)/1 + 10((LogIC50 − X) × Hill Slope), where Y = percent activity, B = minimum percent activity, T = maximum percent activity, X = logarithm of compound and Hill Slope = slope factor or Hill coefficient. The IC50 value was determined by the concentration causing a half-maximal percent activity.

[2] = biological target: T2, HDAC10 (Homo sapiens, UniProt Q969S8); test: In vitro HDAC profiling (deacetylation assay), HDAC10; type: biochemical; conditions: for HDAC Activity (Fluorescent counts): Repeat1/Repeat 2
T2 construct: purchased BPS Bioscience #50051-11
T2 sequence (Q969S8 1-669): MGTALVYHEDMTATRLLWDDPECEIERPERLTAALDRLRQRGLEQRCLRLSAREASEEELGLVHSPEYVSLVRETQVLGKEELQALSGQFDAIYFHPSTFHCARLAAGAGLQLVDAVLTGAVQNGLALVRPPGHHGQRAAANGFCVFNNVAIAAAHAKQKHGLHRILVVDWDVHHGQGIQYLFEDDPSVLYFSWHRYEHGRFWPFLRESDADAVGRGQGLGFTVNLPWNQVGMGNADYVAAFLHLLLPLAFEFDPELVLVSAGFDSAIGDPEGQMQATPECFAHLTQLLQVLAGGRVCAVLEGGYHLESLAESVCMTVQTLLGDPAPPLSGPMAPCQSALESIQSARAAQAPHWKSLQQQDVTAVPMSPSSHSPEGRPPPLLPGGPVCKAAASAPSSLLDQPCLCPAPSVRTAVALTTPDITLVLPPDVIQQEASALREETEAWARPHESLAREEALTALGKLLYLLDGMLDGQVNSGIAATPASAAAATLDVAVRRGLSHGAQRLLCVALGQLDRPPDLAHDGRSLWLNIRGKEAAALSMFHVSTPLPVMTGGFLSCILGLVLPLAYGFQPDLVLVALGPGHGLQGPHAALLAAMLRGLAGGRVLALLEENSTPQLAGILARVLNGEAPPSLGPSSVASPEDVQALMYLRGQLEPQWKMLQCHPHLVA
Experimental: as §1

[3] = tested on: GLI-BS reporter in Ptch1-/- MEFs; test: GLI-BS reporter assay in Ptch1-/- MEFs; type: cell-based
Experimental: The HH-responsive firefly luciferase reporter (GLI-BS) and a control Renilla luciferase reporter (SV40-RL) were transfected into indicated cell lines using Effectene (Qiagen) either alone or with indicated DNAs. 24 hrs after transfection, cells were switched to low serum media (3% calf serum), and grown for another 48 hrs. in 5% CO2 in the presence/absence of compounds. 3T3-ShhFL cell line that stably expressing SHH and the two reporters were cultured in a similar fashion. FL and RL activities in lysate generated using Passive Lysis Buffer (Promega) were then assessed using the Dual-Luciferase kit (Promega) and a 96-well plate reading luminometer (BMG). The ratio of FL/RL was calculated and the averaged ratios from three replicates were reported.

[4] = tested on: nuclear HDAC activity (Ac-H3) in NIH-3T3 cells; test: Acetylation assay, Western blotting for acetylated histone 3 (Ac-H3); type: cell-based; conditions: 48hrs, Western blot
Experimental: For analyzing acetylation status of histone 3 and tubulin, NIH3T3 cells were grown to confluence in 6-well plates. After 48hrs of treatment with indicated chemicals, cells were lysed in RIPA buffer or 1% NP40/phosphate buffered saline/protease inhibitors (SIGMA, #S8820), the lysate cleared using a microcentrifuge, then 6 × sample loading buffer (Bioland Scientific) added to the supernatant. Proteins were separated on SDS-PAGE (BioRad Criterion TGX Precast Gels). Antibodies used for analyzing the blots were: acetylated tubulin (SIGMA, #T6793), tubulin, acetyl-histone H3 (Lys23), and histone H3 (Cell Signaling Technology, #2125 S, #8848 and #9717, respectively). Chemiluminescence was detected using a Li-COR Odyssey Imaging System.

[5] = in vitro deacetylation assay, duplicates

O=C(CCCCCCC(=O)Nc1ccc(Cl)c(C(=O)Nc2ccc(NC(=O)c3cc(Cl)ccc3Cl)cc2)c1)NO [IHR-SAHA]
HDAC Activity (Fluorescent counts) ([1]; HDAC5, WW01 0 Log nM): 30976 Fluorescent counts and 29141 Fluorescent counts | HDAC Activity (Fluorescent counts) ([1]; HDAC5, WW01 0.5 Log nM): 29969 Fluorescent counts and 29451 Fluorescent counts | HDAC Activity (Fluorescent counts) ([1]; HDAC5, WW01 1 Log nM): 31041 Fluorescent counts and 29968 Fluorescent counts | HDAC Activity (Fluorescent counts) ([1]; HDAC5, WW01 1.5 Log nM): 29717 Fluorescent counts and 27943 Fluorescent counts | HDAC Activity (Fluorescent counts) ([1]; HDAC5, WW01 2 Log nM): 26390 Fluorescent counts and 24587 Fluorescent counts | HDAC Activity (Fluorescent counts) ([1]; HDAC5, WW01 2.5 Log nM): 24330 Fluorescent counts and 23282 Fluorescent counts | HDAC Activity (Fluorescent counts) ([1]; HDAC5, WW01 3 Log nM): 21924 Fluorescent counts and 21338 Fluorescent counts | HDAC Activity (Fluorescent counts) ([1]; HDAC5, WW01 3.5 Log nM): 23432 Fluorescent counts and 20698 Fluorescent counts | HDAC Activity (Fluorescent counts) ([1]; HDAC5, WW01 4 Log nM): 19760 Fluorescent counts and 18237 Fluorescent counts | HDAC Activity (Fluorescent counts) ([1]; HDAC5, WW01 -0.5 Log nM): 30061 Fluorescent counts and 30641 Fluorescent counts | IC50 [1, 5]: > 10000 nM | HDAC Activity (Fluorescent counts) ([2]; HDAC10, WW01 0 Log nM): 21183 Fluorescent counts and 21616 Fluorescent counts | HDAC Activity (Fluorescent counts) ([2]; HDAC10, WW01 0.5 Log nM): 20859 Fluorescent counts and 21260 Fluorescent counts | HDAC Activity (Fluorescent counts) ([2]; HDAC10, WW01 1 Log nM): 19414 Fluorescent counts and 20650 Fluorescent counts | HDAC Activity (Fluorescent counts) ([2]; HDAC10, WW01 1.5 Log nM): 17046 Fluorescent counts and 19100 Fluorescent counts | HDAC Activity (Fluorescent counts) ([2]; HDAC10, WW01 2 Log nM): 13500 Fluorescent counts and 13556 Fluorescent counts | HDAC Activity (Fluorescent counts) ([2]; HDAC10, WW01 2.5 Log nM): 9393 Fluorescent counts and 9233 Fluorescent counts | HDAC Activity (Fluorescent counts) ([2]; HDAC10, WW01 3 Log nM): 6324 Fluorescent counts and 6307 Fluorescent counts | HDAC Activity (Fluorescent counts) ([2]; HDAC10, WW01 3.5 Log nM): 4593 Fluorescent counts and 4402 Fluorescent counts | HDAC Activity (Fluorescent counts) ([2]; HDAC10, WW01 4 Log nM): 3949 Fluorescent counts and 4170 Fluorescent counts | HDAC Activity (Fluorescent counts) ([2]; HDAC10, WW01 -0.5 Log nM): 22257 Fluorescent counts and 21526 Fluorescent counts | IC50 [2, 5]: 174 nM | IC50 [3]: 15 nM | HDAC inhibitory activity, accumulation of acetylated histone 3 (ratio Ac-H3 to total H3) [4]: retain HDAC inhibitory activity
